From patent publication US20230001396A1, “COMPOSITIONS AND METHODS FOR CONTROLLED DELIVERY AND PROTECTION OF THERAPEUTIC AGENTS” (Board of Regents, The University of Texas System, priority 2019, published 2023)

Experiment: Ex vitro study: fluorescence intensity over time in 1×PBS at 37° C.
Type: physicochemical
Conditions: 1×PBS buffer pH 7.4 and 5.4, 37° C.
Protocol: Ex vitro study: In order to observe the stability of PLGA microparticles in blood ex vitro study was done by the presence of fluorescence intensity after treating the Cy5@ZIF-8@PLGA particles in 1×PBS buffer. The experiment was performed at two different pH conditions. One was pH 7.4 which is the normal blood pH and another was pH 5.4 which mimic the extreme pH condition of blood in different disease states. The fluorescence intensity was measured at different time intervals. For that four types of samples were prepared every time. In two Eppendorf tubes PBS buffer of pH 7.4 and 5.4 were taken and fluorescence intensity was measured and found no peaks. PLGA microparticles were dissolved in 1×PBS buffer pH 7.4 and pH 5.4 with 10 mins centrifugation in Beckman ultra-small centrifuge machine at 3225×g. Only the dissolved clear supernatant was taken and kept in a hot room (37° C.). In another two Eppendorf tubes, Cy5 dye was dissolved in 1×PBS buffer pH 7.4 and 5.4 and kept under the same conditions as the PLGA microparticles to validate the change of fluorescence intensity of Cy5 dye at 37° C. (FIGS. 8A-8D).
It is believed that the PLGA microparticles further preserve the Cy5 dye and act as a sustained release protective shell which can enhance the release period of model drug Cy5 at blood pH.

C[N+]1=C(C=CC=CC=C2N(CCCCCC(=O)O)c3ccc(S(=O)(=O)O)cc3C2(C)C)C(C)(C)c2cc(S(=O)(=O)[O-])ccc21 [Cy5 dye, 3H-Indolium, 2-[5-[1-(5-Carboxypentyl)-1,3-dihydro-3,3-dimethyl-5-sulfo-2H-indol-ylidene]-1,3-pentadien-1-yl]-1-methyl-3,3-dimethyl-5-sulfonate]
change of fluorescence intensity over time: did not show any regular change of fluorescence intensity over time
